# Values quoted from earlier work as cited in patent US20070009938A1, “Minimalist bZIP derivatives that bind to noncanonical gene regulatory sequences” (priority 2005, published 2007).
# What was measured:
# CRE (ATF/CREB) site = details: previously shown, Lajmi et al. 2000
# AP-1 site = details: previously shown, Lajmi et al. 2000
Substance,"binding to CRE (ATF/CREB) site, DNase I footprinting (CRE (ATF/CREB) site)","binding to AP-1 site, DNase I footprinting (AP-1 site)"
4A: alanine-rich derivative of wt bZIP with four Ala substitutions in the GCN4 basic region (SEQ ID NO:3) (ARAAAARARNTAAARRSRARKLQRMKQ; basic region 4A bZIP mutant peptide),bind,bind
18A: alanine-rich derivative of wt bZIP; 24 of the 27 basic-region residues are alanine (SEQ ID NO:5) (AAAAAAAAANAAAAAAARAAKAAAAAA; basic region 18A bZIP mutant peptide),bind,bind
"11A: alanine-rich derivative of wt bZIP with eleven Ala substitutions in the basic region, also mutated in the hinge (SEQ ID NO:4) (ARAAAARARNTAAARRSRAAKAAAAAA; basic region 11A bZIP mutant peptide)",bind,bind
